Measurements from patent US20230085307A1, “PYRIDAZINONE COMPOUND AND HERBICIDE” (NISSAN CHEMICAL CORPORATION, priority 2019, published 2023).

Assays:
Italian ryegrass [1] = assay: Test Example 5: herbicidal effect by foliage application, plastic box (Table 20, symbol K); format: in vivo, Italian ryegrass (Lolium multiflorum); conditions: foliage application, 320 g/ha, 3 weeks after application
In short: (§1)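 Sow seeds spot-wise in sterilized diluvial soil; cover with ~1.5 cm soil. Grow 14 days in greenhouse, 25° C. to 30° C. Spray foliage with emulsion diluted to predetermined amount. Rate effect after 3 weeks.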

barnyard grass [2] = assay: Test Example 3: herbicidal effect by foliage application, Wagner pot (Table 18, symbol H); format: in vivo, barnyard grass (Echinochloa crus-galli); conditions: 320 g/ha
In short: (§2)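 Plants were sown in alluvial soil held under 0.1–0.5 cm standing water and grown 14 days in a greenhouse at 25–30 °C. An emulsifiable formulation, water-diluted to the set dose, was then sprayed onto the foliage, and effects were scored three weeks later using previously defined criteria.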

wild oat [3] = assay: Test Example 5: herbicidal effect by foliage application, plastic box (Table 20, symbol I); format: in vivo, wild oat (Avena fatua); conditions: foliage application, 320 g/ha, 3 weeks after application
In short: as §1

rice flat sedge = assay: Test Example 3: herbicidal effect by foliage application, Wagner pot (Table 18, symbol E); format: in vivo, rice flat sedge (Cyperus iria); conditions: 320 g/ha
In short: as §2

oval-leafed pondweed = assay: Test Example 2: herbicidal activity, application during weed generation under submerged conditions (Table 17, symbol C); format: in vivo, oval-leafed pondweed (Monochoria vaginalis); conditions: AAH 320 g/ha; application during weed generation, submerged conditions
In short: (§3)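 Effect on each weed is rated three weeks post-treatment, using the same scoring criteria as the preceding test. Plants grow from mixed-sown seed in flooded alluvial soil (4 cm water) at 25° C. to 30° C., and are treated at one to two leaves with diluted emulsion dropped onto the water.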

persian speedwell [4] = assay: Test Example 5: herbicidal effect by foliage application, plastic box (Table 20, symbol R); format: in vivo, Persian speedwell (Veronica persica); conditions: foliage application, 320 g/ha, 3 weeks after application
In short: as §1

windgrass [5] = assay: Test Example 4: herbicidal effect by soil treatment (Table 19, symbol L); format: in vivo, windgrass (Apera spica-venti); conditions: 320 g/ha
In short: (§4)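 Soil-surface application: an emulsion agent diluted with water to the predetermined dose is sprayed uniformly over seeds lying under roughly 1.5 cm of sterilized diluvial soil. Boxes stay in a greenhouse at 25° C. to 30° C. Three weeks later, each species is graded on previously defined criteria.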

lambsquarters [6] = assay: Test Example 5: herbicidal effect by foliage application, plastic box (Table 20, symbol O); format: in vivo, lambsquarters (Chenopodium album); conditions: foliage application, 320 g/ha, 3 weeks after application
In short: as §1

Chinese sprangletop = assay: Test Example 3: herbicidal effect by foliage application, Wagner pot (Table 18, symbol D); format: in vivo, chinese sprangletop (Leptochloa chinensis); conditions: 320 g/ha
In short: as §2

green foxtail [7] = assay: Test Example 4: herbicidal effect by soil treatment (Table 19, symbol G); format: in vivo, green foxtail (Setaria viridis); conditions: 320 g/ha
In short: as §4

Italian ryegrass [8] = assay: Test Example 4: herbicidal effect by soil treatment (Table 19, symbol K); format: in vivo, Italian ryegrass (Lolium multiflorum); conditions: 320 g/ha
In short: as §4

southern crabgrass [9] = assay: Test Example 4: herbicidal effect by soil treatment (Table 19, symbol F); format: in vivo, southern crabgrass (Digitaria ciliaris); conditions: 320 g/ha
In short: as §4

lambsquarters [10] = assay: Test Example 4: herbicidal effect by soil treatment (Table 19, symbol O); format: in vivo, lambsquarters (Chenopodium album); conditions: 320 g/ha
In short: as §4

velvetleaf [11] = assay: Test Example 5: herbicidal effect by foliage application, plastic box (Table 20, symbol M); format: in vivo, velvetleaf (Abutilon theophrasti); conditions: foliage application, 320 g/ha, 3 weeks after application
In short: as §1

chickweed = assay: Test Example 4: herbicidal effect by soil treatment (Table 19, symbol P); format: in vivo, common chickweed (Stellaria media); conditions: 320 g/ha
In short: as §4

barnyard grass [12] = assay: Test Example 4: herbicidal effect by soil treatment (Table 19, symbol H); format: in vivo, barnyard grass (Echinochloa crus-galli); conditions: 320 g/ha
In short: as §4

blackgrass [13] = assay: Test Example 5: herbicidal effect by foliage application, plastic box (Table 20, symbol J); format: in vivo, blackgrass (Alopecurus myosuroides); conditions: foliage application, 320 g/ha, 3 weeks after application
In short: as §1

green foxtail [14] = assay: Test Example 5: herbicidal effect by foliage application, plastic box (Table 20, symbol G); format: in vivo, green foxtail (Setaria viridis); conditions: foliage application, 320 g/ha, 3 weeks after application
In short: as §1

persian speedwell [15] = assay: Test Example 4: herbicidal effect by soil treatment (Table 19, symbol R); format: in vivo, Persian speedwell (Veronica persica); conditions: 320 g/ha
In short: as §4

Japanese bulrush = assay: Test Example 2: herbicidal activity, application during weed generation under submerged conditions (Table 17, symbol B); format: in vivo, Japanese bulrush (Schoenoplectus juncoides); conditions: AAH 320 g/ha; application during weed generation, submerged conditions
In short: as §3

redroot pigweed = assay: Test Example 4: herbicidal effect by soil treatment (Table 19, symbol N); format: in vivo, redroot pigweed (Amaranthus retroflexus); conditions: 320 g/ha
In short: as §4

blackgrass [16] = assay: Test Example 4: herbicidal effect by soil treatment (Table 19, symbol J); format: in vivo, blackgrass (Alopecurus myosuroides); conditions: 320 g/ha
In short: as §4

false cleavers = assay: Test Example 5: herbicidal effect by foliage application, plastic box (Table 20, symbol Q); format: in vivo, false cleavers (Galium spurium); conditions: foliage application, 320 g/ha, 3 weeks after application
In short: as §1

southern crabgrass [17] = assay: Test Example 5: herbicidal effect by foliage application, plastic box (Table 20, symbol F); format: in vivo, southern crabgrass (Digitaria ciliaris); conditions: foliage application, 320 g/ha, 3 weeks after application
In short: as §1

windgrass [18] = assay: Test Example 5: herbicidal effect by foliage application, plastic box (Table 20, symbol L); format: in vivo, windgrass (Apera spica-venti); conditions: foliage application, 320 g/ha, 3 weeks after application
In short: as §1

barnyard grass [19] = assay: Test Example 5: herbicidal effect by foliage application, plastic box (Table 20, symbol H); format: in vivo, barnyard grass (Echinochloa crus-galli); conditions: foliage application, 320 g/ha, 3 weeks after application
In short: as §1

velvetleaf [20] = assay: Test Example 4: herbicidal effect by soil treatment (Table 19, symbol M); format: in vivo, velvetleaf (Abutilon theophrasti); conditions: 320 g/ha
In short: as §4

wild oat [21] = assay: Test Example 4: herbicidal effect by soil treatment (Table 19, symbol I); format: in vivo, wild oat (Avena fatua); conditions: 320 g/ha
In short: as §4

late watergrass = assay: Test Example 2: herbicidal activity, application during weed generation under submerged conditions (Table 17, symbol A); format: in vivo, late watergrass (Echinochloa oryzicola); conditions: AAH 320 g/ha; application during weed generation, submerged conditions
In short: as §3

CCOc1ccccc1-c1sc2ccc(F)cc2c1-c1c(O)c(C)nn(C)c1=O [2-028]
effect on Italian ryegrass (K) (Italian ryegrass [1]): 3 (Herbicidal rate of 40% or more and less than 70%)
herbicidal effect on H (barnyard grass), rating 0-5 (barnyard grass [2]): 4 (Herbicidal rate of 70% or more and less than 90%)
effect on wild oat (I) (wild oat [3]): 3 (Herbicidal rate of 40% or more and less than 70%)
herbicidal effect on E (rice flat sedge), rating 0-5 (rice flat sedge): 5 (Herbicidal rate of 90% or more (almost completely withered))
herbicidal effect rating, C: oval-leafed pondweed (oval-leafed pondweed): 3 (Herbicidal rate of 40% or more and less than 70%)
effect on persian speedwell (R) (persian speedwell [4]): 5 (Herbicidal rate of 90% or more (almost completely withered))
herbicidal effect rating, L: windgrass (windgrass [5]): 0 (Herbicidal rate of 5% or less (almost no effect))
effect on lambsquarters (O) (lambsquarters [6]): 3 (Herbicidal rate of 40% or more and less than 70%)
herbicidal effect on D (Chinese sprangletop), rating 0-5 (Chinese sprangletop): 3 (Herbicidal rate of 40% or more and less than 70%)
herbicidal effect rating, G: green foxtail (green foxtail [7]): 2 (Herbicidal rate of 20% or more and less than 40%)
herbicidal effect rating, K: Italian ryegrass (Italian ryegrass [8]): 0 (Herbicidal rate of 5% or less (almost no effect))
herbicidal effect rating, F: southern crabgrass (southern crabgrass [9]): 3 (Herbicidal rate of 40% or more and less than 70%)
herbicidal effect rating, O: lambsquarters (lambsquarters [10]): 3 (Herbicidal rate of 40% or more and less than 70%)
effect on velvetleaf (M) (velvetleaf [11]): 4 (Herbicidal rate of 70% or more and less than 90%)
herbicidal effect rating, P: chickweed (chickweed): 4 (Herbicidal rate of 70% or more and less than 90%)
herbicidal effect rating, H: barnyard grass (barnyard grass [12]): 3 (Herbicidal rate of 40% or more and less than 70%)
effect on blackgrass (J) (blackgrass [13]): 4 (Herbicidal rate of 70% or more and less than 90%)
effect on green foxtail (G) (green foxtail [14]): 4 (Herbicidal rate of 70% or more and less than 90%)
herbicidal effect rating, R: persian speedwell (persian speedwell [15]): 5 (Herbicidal rate of 90% or more (almost completely withered))
herbicidal effect rating, B: Japanese bulrush (Japanese bulrush): 1 (Herbicidal rate of 5% or more and less than 20%)
herbicidal effect rating, N: redroot pigweed (redroot pigweed): 5 (Herbicidal rate of 90% or more (almost completely withered))
herbicidal effect rating, J: blackgrass (blackgrass [16]): 0 (Herbicidal rate of 5% or less (almost no effect))
effect on false cleavers (Q) (false cleavers): 5 (Herbicidal rate of 90% or more (almost completely withered))
effect on southern crabgrass (F) (southern crabgrass [17]): 3 (Herbicidal rate of 40% or more and less than 70%)
effect on windgrass (L) (windgrass [18]): 4 (Herbicidal rate of 70% or more and less than 90%)
effect on barnyard grass (H) (barnyard grass [19]): 4 (Herbicidal rate of 70% or more and less than 90%)
herbicidal effect rating, M: velvetleaf (velvetleaf [20]): 3 (Herbicidal rate of 40% or more and less than 70%)
herbicidal effect rating, I: wild oat (wild oat [21]): 0 (Herbicidal rate of 5% or less (almost no effect))
herbicidal effect rating, A: late watergrass (late watergrass): 3 (Herbicidal rate of 40% or more and less than 70%)
